Here are results for 17 substances from publication PMC11345766, “Computational Design of Pore-Forming Peptides with Potent Antimicrobial and Anticancer Activities” (Journal of Medicinal Chemistry, 2024).

Read-outs that look alike come from different tables or passages of the source. Ends that are not written are not given here. Where only a bound is given, the exact number is not on record here.

The subject of one series is S. carnosus (CCM 4838T). The series is described as follows: microbe, parasite or virus in culture. The settings on record: CCM 4838, 24 h; read-out: Antimicrobial activity (MIC) S. carnosus (CCM 4838T). The class given is cell-based, Staphylococcus carnosus. The text has this: (§1) To test antimicrobial activity, all peptides were initially screened, in a broth microdilution assay, against Gram-negative Escherichia coli (TOP10) and Gram-positive Staphylococcus carnosus (CCM 4838T) Biosafety Level 1 (BSL-1) bacteria (Table 2). […] Four other mutants (LP3, LP26, LP36, and LP39) had higher activity than LP1 against E. coli, and two mutants (LP23 and LP32) had higher activity than LP1 against S. carnosus. Six mutants (LP29, LP30, LP31, LP33, LP40, and LP43) were not active against one or both bacteria, even at the highest concentration tested (50 μM).
(§2) Antimicrobial activity against E. coli TOP10 and S. carnosus CCM 4838T was tested using the broth microdilution assay. Bacteria were cultured in MHA Petri dish for 24 h, subcultured in an MHB test tube for 6 h at 37 °C, and diluted to 10^6 CFU/mL (OD600). […] Dilution series was prepared for concentrations 50 to 0.1 μM in a flat-bottom 96-well plate, inoculated with bacteria, and incubated for 24 h at 37 °C. Growth control wells were free from test compounds, and sterility control wells were free from bacteria. Bacterial MIC was determined as the lowest concentration of test compounds that inhibited visible growth of bacteria (i.e., no visible turbidity).

The procedure of series [1]: (§3) Cytotoxicity against human immortalized keratinocytes HaCaT, human alveolar basal epithelial A549 (derived from adenocarcinoma), and murine macrophages RAW 264.7 was tested using MTT [3-(4,5-dimethylthiazol-2-yl)-2,5-diphenyltetrazolium bromide] assay. Cells were cultured in Dulbecco’s modified Eagle’s medium (DMEM) containing 4 mM glutamine for HaCaT, or 2 mM glutamine for A549 and RAW 264.7 cells, supplemented with 10% heat-inactivated fetal bovine serum (FBS) and antibiotics (0.1 mg/mL penicillin and streptomycin). Nonessential amino acids (NEAA) and sodium pyruvate (1 mM) were added for macrophages. Cell lines were grown in 25 and 75 cm^2 flasks at 37 °C in a humidified atmosphere with 5% CO2. Cells were suspended in DMEM, containing glutamine, NEAA, and sodium pyruvate (as described above), supplemented with 2% FBS, plated in 96-well plates at 4 × 10^4 cells/well, and incubated at 37 °C in a 5% CO2 atmosphere. After overnight incubation, the medium was replaced with fresh DMEM supplemented with peptides at different concentrations: 2, 4, 8, 16, 32, 64, and 128 μM. Negative controls were cells without peptides. After 24 h of peptide treatment at 37 °C in a 5% CO2 atmosphere, medium was replaced with Hank’s buffer (136 mM NaCl, 0.34 mM Na2HPO4, 0.44 mM KH2PO4, 5.4 mM KCl, 4.1 mM NaHCO3, supplemented with 5.5 mM D-glucose) containing 0.5 mg/mL MTT. Mitochondrial dehydrogenases converted soluble yellow dye MTT to insoluble purple formazan. After 4 h of incubation, acidified isopropanol was added to dissolve formazan crystals and measured for OD570 using Tecan microplate reader Infinite M200 (Salzburg, Austria).

Series [2] can be described thus: Calcein dye leakage assay from LUVs. The format is biochemical. The settings on record: for Calcein leakage (%) from LUVs at P:L 1:100 (mol/mol): pH 7.4; for Calcein leakage: even at a higher P:L ratio of 1:10. The text has this: To verify the pore-forming mechanism of action of the designed AMPs, we performed a calcein leakage assay. […] These lipid vesicles were used as simple mimics of bacterial membranes.[58] At the lowest tested peptide-to-lipid (P:L) ratio of 1:100 (mol/mol), three mutants (LP18, LP26, and LP40) caused >90% leakage, which was higher than the leakage caused by LP1 (87%). […] At the same concentration, LP23 caused leakage equivalent to that caused by LP1. Other mutants had lower leakage activity. At a higher P:L ratio of 1:50, all the abovementioned mutants caused 100% leakage, equivalent to that caused by LP1.
Pore-forming activity was tested using a dye leakage assay measuring the leakage of self-quenching fluorescent dye calcein from POPC:POPG (1:1 mol/mol) LUVs. DiD was mixed with lipids (1:500 mol/mol), and lipid film was created by evaporating chloroform, followed by 4 h of desiccation. Dried lipid film was dissolved in calcein buffer (35 mM calcein, 25 mM NaH2PO4·H2O and Na2HPO4·7H2O (3:7 mol/mol), 20 mM NaCl, and 1 mM EDTA). After 10 freeze–thaw cycles, the sample was extruded 50 times through a 100 nm pore size polycarbonate membrane filter. Free calcein in solution was removed using a HiTrap Desalting column. The concentrations of LUVs and peptides were adjusted to 0.02 and 0.1 mM, respectively, in PBS (25 mM NaH2PO4·H2O and Na2HPO4·7H2O (3:7 mol/mol), 100 mM NaCl, and 1 mM EDTA). The investigated P/L ratio was from 1:100 to 1:10 (mol/mol). Fluorescence intensity was measured using a HORIBA Scientific Jobin Yvon FluoroLog-3 Modular Spectrofluorometer (USA). Excitation and emission wavelengths were set to 495 and 520 nm, respectively. Triton X-100 10% caused 100% leakage used for normalization.

Series [3] deals with human red blood cells (HRBCs). Particulars: read-out: Hemolysis toxicity (IC50); 1 h incubation. Here is the method: To investigate the toxicity for normal human cells, all peptides were first screened against human red blood cells (HRBCs) using a hemolysis assay (Table 2 and Figure S4).
Hemolysis toxicity was tested against HRBCs. Blood samples, collected from the university hospital, were centrifuged twice at 700 × g and once at 1000 × g for 8 min at 4 °C to obtain erythrocyte pellets. Supernatants were always discarded, and pellets were resuspended in PBS (the same as the antimicrobial susceptibility assay). The final RBC suspension was 0.5% (v/v). Dilution series was prepared for concentrations 50 to 0.1 μM in a V-bottom 96-well plate, followed by the addition of RBC suspension. […] After 1 h of incubation at 37 °C, the well plate was centrifuged at 1000 × g for 10 min at 4 °C. The supernatant, collected in a flat-bottom well plate, was measured for OD415 using Tecan Microplate Reader Infinite F500.

Another series relates to E. coli (TOP10). The series is described as follows: Broth microdilution antimicrobial susceptibility assay. The format is cell-based, Escherichia coli.
From the text: as §1, §2

How the values of series [4] were obtained:
as §3
This is another data set of the same source.

On to “KKKKLKKLLKKLFQFLNQLDNQLQDLKQNK-NH2 [LP32]”, for which the MIC stood at 0.4 µM with S. carnosus (CCM 4838T) and 1.6 µM against E. coli (TOP10) (TOP10, 24 h). Moreover, the IC50 was under 2 µM in series [1] and over 50 µM in series [3]. Also, the “Calcein leakage (%) from LUVs at P:L 1:100 (mol/mol)” value in series [2] is given as 56.3 ± 3.3%.

In the case of “KKKKLKKILKKLWQWINQLDNQLQDIKQNK-NH2 [LP3]”, the MIC in the series with S. carnosus (CCM 4838T) is 0.8 µM; with E. coli (TOP10) (24 h, MHB), 0.4 µM. For the same substance, the “Calcein leakage (%) from LUVs at P:L 1:100 (mol/mol)” value in series [2] was 29.6 ± 1.2%.

Turning to “KKKKLKKILKKLFQFINQLENQLQEIKQNK-NH2 [LP8]”, the MIC turned out to be 0.8 µM in the series on S. carnosus (CCM 4838T) and 0.8 µM in the series on E. coli (TOP10) (24 h, MHB). Also, in series [2], the “Calcein leakage (%) from LUVs at P:L 1:100 (mol/mol)” value is reported as 29.2 ± 4.9%.

In the case of “KKKKAKKAAKKAFQFANQADNQAQDAKQNK-NH2 [LP29]”, the MIC in the series on S. carnosus (CCM 4838T) is reported as over 50 µM. In series [2], the “Calcein leakage (%) from LUVs at P:L 1:100 (mol/mol)” value is on record as 0% and the Calcein leakage entry is recorded as “did not cause any leakage”. The IC50 in series [3] was over 50 µM. The same substance displayed an MIC with E. coli (TOP10) (TOP10, 24 h) of over 50 µM.

For “H-KKKKLKKILKKLFQFINQLDNQLQDFKQNK-OH [LP26]”, the MIC in the series with S. carnosus (CCM 4838T) worked out at 0.8 µM; against E. coli (TOP10) (24 h, MHB), 0.4 µM. Besides, the “Calcein leakage (%) from LUVs at P:L 1:100 (mol/mol)” value in series [2] is on record as 91.6 ± 2.8%.

In the case of “KKKKMKKMMKKMFQFMNQMDNQMQDMKQNK-NH2 [LP30]”, the MIC is 12.5 µM in the series on S. carnosus (CCM 4838T) and over 50 µM against E. coli (TOP10) (TOP10, 24 h). Moreover, the “Calcein leakage (%) from LUVs at P:L 1:100 (mol/mol)” value in series [2] is 21.9 ± 2.5%. Further, the IC50 in series [3] was over 50 µM.

For the substance “H-KKKKLKKILKKLFQFINQLDNQLQDIKQNK-OH [LP22]”, the MIC is 0.4 µM in the series with S. carnosus (CCM 4838T) and 0.2 µM in the series with E. coli (TOP10) (24 h, MHB). Moreover, the “Calcein leakage (%) from LUVs at P:L 1:100 (mol/mol)” value in series [2] is listed as 68.0 ± 1.7%.

Regarding “Ac-KKKKLKKILKKLFQFINQLDNQLQDIKQNK-NH2 [LP23]”, the MIC in the series on S. carnosus (CCM 4838T) is 0.4 µM; with E. coli (TOP10) (TOP10, 24 h), 6.3 µM. Moreover, in series [2], the “Calcein leakage (%) from LUVs at P:L 1:100 (mol/mol)” value is 83.3 ± 5.4%. In series [3], the IC50 was over 50 µM.

With “KNQNLDDILNQLFQFINQLKNQLQKIKKKK-NH2 [LP43]”, the MIC is reported as 0.8 µM with S. carnosus (CCM 4838T) and over 50 µM in the series with E. coli (TOP10) (TOP10, 24 h). For the same substance, the “Calcein leakage (%) from LUVs at P:L 1:100 (mol/mol)” value in series [2] is 64.2 ± 4.6%. Also, the IC50 in series [3] is over 50 µM.

In the case of “KKKKLKKILKKLIQLINQLDNQLQDIKQNK-NH2 [LP2]”, the MIC in the series on S. carnosus (CCM 4838T) was determined as 1.6 µM; against E. coli (TOP10) (TOP10, 24 h), 6.3 µM. Also, the “Calcein leakage (%) from LUVs at P:L 1:100 (mol/mol)” value in series [2] is 24.2 ± 2.6%. Moreover, the IC50 in series [3] is over 50 µM.

On to “KKKKVKKVVKKVFQFVNQVDNQVQDVKQNK-NH2 [LP31]”, for which the IC50 was over 128 µM in series [4] and over 50 µM in series [3]. The MIC with S. carnosus (CCM 4838T) is over 50 µM; with E. coli (TOP10) (TOP10, 24 h), over 50 µM. For the same substance, in series [2], the “Calcein leakage (%) from LUVs at P:L 1:100 (mol/mol)” value was 0%. Further, the Calcein leakage in series [2] is at most 20%.

On to “KKKKLKKILKKLFQFIDQLINDLQNIKKKK-NH2 [LP20]”, for which the MIC in the series with S. carnosus (CCM 4838T) turned out to be 1.6 µM; against E. coli (TOP10) (24 h, MHB) it was 1.6 µM. For the same substance, the “Calcein leakage (%) from LUVs at P:L 1:100 (mol/mol)” value in series [2] is reported as 38.6 ± 3.5%.

On to “KKKKLKKILKKLFNFINNLDNNLNDIKNNK-NH2 [LP37]”, for which the MIC is on record as 0.4 µM in the series with S. carnosus (CCM 4838T) and 0.2 µM against E. coli (TOP10) (TOP10, 24 h). Moreover, in series [2], the “Calcein leakage (%) from LUVs at P:L 1:100 (mol/mol)” value is given as 70.3 ± 1.7%. Moreover, in series [3], the IC50 is over 50 µM.

Regarding “KKKKLKKILKKLFTFITTLDTTLTDIKTTK-NH2 [LP34]”, the MIC in the series with S. carnosus (CCM 4838T) was found to be 0.8 µM; with E. coli (TOP10) (TOP10, 24 h) it was 0.8 µM. Further, the “Calcein leakage (%) from LUVs at P:L 1:100 (mol/mol)” value in series [2] was 79.3 ± 2.4%. Also, the IC50 in series [3] was over 50 µM.

In the case of “KKKKLKKILKKLFSFISSLDSSLSDIKSSK-NH2 [LP36]”, the MIC in the series with S. carnosus (CCM 4838T) was determined as 0.8 µM; in the series with E. coli (TOP10) (TOP10, 24 h), 0.4 µM. Further, the “Calcein leakage (%) from LUVs at P:L 1:100 (mol/mol)” value in series [2] is given as 71.5 ± 7.4%. In addition, in series [3], the IC50 is over 50 µM.

In the case of “RRRRLKKILKKLFQFINQLDNQLQDIRQNR-NH2 [LP39]”, the MIC with S. carnosus (CCM 4838T) stood at 0.8 µM; against E. coli (TOP10) (24 h, MHB), 0.4 µM. Further, in series [2], the “Calcein leakage (%) from LUVs at P:L 1:100 (mol/mol)” value is on record as 65.5 ± 4.2%.

Turning to “KKKKLRRILRRLFQFINQLDNQLQDIKQNK-NH2 [LP38]”, the MIC with S. carnosus (CCM 4838T) is on record as 0.4 µM; against E. coli (TOP10) (24 h, MHB), 0.2 µM. Also, in series [2], the “Calcein leakage (%) from LUVs at P:L 1:100 (mol/mol)” value is given as 76.0 ± 3.3%.

As a reminder, the IC50 is the concentration that inhibits the measured activity by half.
